US11535593B2, “3-phosphoglycerate dehydrogenase inhibitors and uses thereof” (Raze Therapeutics, Inc., priority 2016, dated 2022)

target: T1, Full length (FL) 3-Phosphoglycerate Dehydrogenase (PHGDH) (Homo sapiens, UniProt O43175); assay: Full length (FL) PHGDH Diaphorase coupled assay (500 uM NAD); format: biochemical; settings: 5 nM PHGDH, 30° C., 60 minutes
T1 construct: Full length (FL) 3-Phosphoglycerate Dehydrogenase (PHGDH) Diaphorase coupled assay (500 uM NAD)
T1 sequence (O43175 1-533): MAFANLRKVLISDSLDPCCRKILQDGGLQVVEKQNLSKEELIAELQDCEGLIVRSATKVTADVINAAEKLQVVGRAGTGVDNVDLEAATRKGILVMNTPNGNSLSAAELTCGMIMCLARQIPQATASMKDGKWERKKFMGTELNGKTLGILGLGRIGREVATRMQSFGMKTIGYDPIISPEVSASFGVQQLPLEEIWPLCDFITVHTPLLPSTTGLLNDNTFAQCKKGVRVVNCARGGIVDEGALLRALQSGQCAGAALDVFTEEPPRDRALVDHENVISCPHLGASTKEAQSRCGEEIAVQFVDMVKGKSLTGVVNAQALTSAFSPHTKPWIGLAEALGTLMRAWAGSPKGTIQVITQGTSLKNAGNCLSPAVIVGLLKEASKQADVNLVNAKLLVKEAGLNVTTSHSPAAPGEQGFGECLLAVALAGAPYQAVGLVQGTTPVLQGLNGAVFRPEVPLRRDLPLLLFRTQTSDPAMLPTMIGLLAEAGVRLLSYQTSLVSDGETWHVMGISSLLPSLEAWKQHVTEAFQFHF
Protocol: Full length (FL) 3-Phosphoglycerate Dehydrogenase (PHGDH) Diaphorase coupled assay (500 uM NAD)
PHGDH activity was determined by detecting the NADH produced during the reaction. Diaphorase was used to catalyze the oxidation of NADH with the concomitant reduction of resazurin to the fluorescent product resorufin. Resorufin fluorescence quantitatively reflected the production of NADH by the PHGDH reaction. To drive the forward reaction, two enzymes in the serine synthesis pathway subsequent to PHGDH, Phosphoserine aminotransferase (PSAT1) and phosphoserine phosphatase (PSPH) were also added to the reaction.

IC50 | Structure (SMILES)
10 to 1000 nM | CCC(C(=O)O)c1ccc([C@@H](CO)NC(=O)c2cc3c(Cl)c(Cl)c(OC)cc3n2C)cc1 (mixture of isomers) [Compound I-4, (±)-2-[4-[(1S)-1-[(4,5-dichloro-6-methoxy-1-methyl-indole-2-carbonyl)amino]-2-hydroxy-ethyl]phenyl]butanoic Acid]
10 to 1000 nM | CCC(C(=O)O)c1ccc([C@@H](CO)NC(=O)c2cc3c(Cl)c(OC)ccc3n2C)cc1 (mixture of isomers) [Compound I-5, (±)-2-[4-[(1S)-1-[(4-chloro-5-methoxy-1-methyl-indole-2-carbonyl)amino]-2-hydroxy-ethyl]phenyl]butanoic Acid]
10 to 1000 nM | CCC(C(=O)O)c1ccc([C@@H](CO)NC(=O)c2cc3c(Cl)c(Cl)ccc3n2C)cc1 (mixture of isomers) [Compound I-15, (±)-2-[4-[(1S)-1-[(4,5-dichloro-1-methyl-indole-2-carbonyl)amino]-2-hydroxy-ethyl]phenyl]butanoic Acid]
10 to 1000 nM | CC(NC(=O)c1cc2c(Cl)c(Cl)ccc2n1C)c1ccc(CC(=O)O)cc1 (racemic) [Compound I-34, (±)-2-(4-(1-(4,5-Dichloro-1-methyl-1H-indole-2-carboxamido)ethyl)phenyl) acetic Acid]
1000 to 5000 nM | Cn1c(C(=O)NC(c2ccc(C(=O)O)cc2)C(F)(F)F)cc2c(Cl)c(Cl)ccc21 (racemic) [Compound I-38, (±)-4-(1-(4,5-Dichloro-1-methyl-1H-indole-2-carboxamido)-2,2,2-trifluoroethyl)benzoic Acid]
10 to 1000 nM | CC(C)C(C(=O)O)c1ccc([C@@H](CO)NC(=O)c2cc3c(Cl)c(Cl)ccc3n2C)cc1 (mixture of isomers) [Compound I-56, (±)-2-[4-[(1S)-1-[(4,5-dichloro-1-methyl-indole-2-carbonyl)amino]-2-hydroxy-ethyl]phenyl]-3-methyl-butanoic Acid]
10 to 1000 nM | CC(C)C(C(=O)O)c1ccc([C@@H](CO)NC(=O)c2cc3c(Cl)c(Cl)ccc3n2C)cc1 (single isomer, unassigned) [Compound I-54, (2R or 2S)-2-[4-[(1S)-1-[(4,5-dichloro-1-methyl-indole-2-carbonyl)amino]-2-hydroxy-ethyl]phenyl]-3-methyl-butanoic acid]
10 to 1000 nM | Cn1c(C(=O)N[C@H](CO)c2ccc(C(C)(C)C(=O)O)cc2)cc2c(Cl)c(Cl)ccc21 [Compound I-1]
10 to 1000 nM | COc1ccc2c(cc(C(=O)N[C@H](CO)c3ccc(C(C)(C)C(=O)O)cc3)n2C)c1Cl [Compound I-2]
10 to 1000 nM | Cn1c(C(=O)N[C@H](CO)c2ccc(C3(C(=O)O)CC3)cc2)cc2c(Cl)c(Cl)ccc21 [Compound I-3]
10 to 1000 nM | Cn1c(C(=O)NC(CF)c2ccc(C(=O)O)cc2)cc2c(Cl)c(Cl)ccc21 (stereo not drawn) [Compound I-6]
10 to 1000 nM | COc1cc2c(cc(C(=O)N[C@H](CO)c3ccc(C(=O)O)cc3C)n2C)c(Cl)c1Cl [Compound I-7]
10 to 1000 nM | COc1cc2c(cc(C(=O)N[C@H](CO)c3ccc(C(=O)O)cc3C)n2C)c(Cl)c1C [Compound I-8]
10 to 1000 nM | COc1ccc2c(cc(C(=O)N[C@H](CO)c3ccc(CC(=O)O)cc3Cl)n2C)c1Cl [Compound I-9, 2-{3-chloro-4-[(1S)-1-[(4-chloro-5-methoxy-1-methyl-1H-indol-2-yl)formamido]-2-hydroxyethyl]phenyl}acetic acid]
10 to 1000 nM | Cn1c(C(=O)N[C@H](CO)c2ccc(CC(=O)O)cc2Cl)cc2c(Cl)c(Cl)ccc21 [Compound I-10, 2-{3-chloro-4-[(1S)-1-[(4,5-dichloro-1-methyl-1H-indol-2-yl)formamido]-2-hydroxyethyl]phenyl}-acetic acid]
10 to 1000 nM | COc1ccc2c(cc(C(=O)N[C@H](CO)c3ccc(C(=O)O)cc3C)n2C)c1Cl [Compound I-11]
10 to 1000 nM | COc1cc2c(cc(C(=O)N[C@H](CO)c3ccc(C(=O)O)cc3F)n2C)c(Cl)c1C [Compound I-12]
10 to 1000 nM | COc1ccc2c(cc(C(=O)N[C@H](CO)c3ccc(C(=O)O)cc3F)n2C)c1Cl [Compound I-13]
10 to 1000 nM | CC(C(=O)O)c1ccc([C@@H](CO)NC(=O)c2cc3c(Cl)c(Cl)ccc3n2C)cc1 (stereo partly drawn) [Compound I-14]
10 to 1000 nM | COc1cc2c(cc(C(=O)N[C@H](CO)c3ccc(C(=O)O)cc3Cl)n2C)c(Cl)c1C [Compound I-16, 3-chloro-4-[(1S)-1-[(4-chloro-6-methoxy-1,5-dimethyl-1H-indol-2-yl)formamido]-2-hydroxyethyl]benzoic acid]
10 to 1000 nM | COc1cc2c(cc(C(=O)N[C@H](CO)c3ccc(C(=O)O)cc3Cl)n2C)c(Cl)c1Cl [Compound I-17, 3-chloro-4-[(1S)-1-[(4,5-dichloro-6-methoxy-1-methyl-1H-indol-2-yl)formamido]-2-hydroxyethyl]benzoic acid]

IC50 | Structure (SMILES)
10 to 1000 nM | Cc1cc(C(=O)O)ccc1[C@@H](CO)NC(=O)c1cc2c(Cl)c(Cl)ccc2n1C [Compound I-18]
10 to 1000 nM | Cc1cc(CC(=O)O)ccc1[C@@H](CO)NC(=O)c1cc2c(Cl)c(Cl)ccc2n1C [Compound I-19]
10 to 1000 nM | COc1cc2c(cc(C(=O)N[C@H](CO)c3ccc(C(=O)O)cc3F)n2C)c(Cl)c1Cl [Compound I-20]
10 to 1000 nM | COc1ccc2c(cc(C(=O)N[C@H](CO)c3ccc(C(=O)O)cc3Cl)n2C)c1Cl [Compound I-21, 3-chloro-4-[(1S)-1-[(4-chloro-5-methoxy-1-methyl-1H-indol-2-yl)formamido]-2-hydroxyethyl]benzoic acid]
10 to 1000 nM | Cn1c(C(=O)N[C@H](CO)c2ccc(C(=O)O)cc2F)cc2c(Cl)c(Cl)ccc21 [Compound I-22]
10 to 1000 nM | COc1ccc2c(cc(C(=O)N[C@H](CO)c3ccc(CC(=O)O)cc3)n2C)c1Cl [Compound I-23, 2-{4-[(1S)-1-[(4-chloro-5-methoxy-1-methyl-1H-indol-2-yl)formamido]-2-hydroxyethyl]phenyl}acetic acid]
10 to 1000 nM | COc1cc2c(cc(C(=O)N[C@H](CO)c3ccc(CC(=O)O)cc3F)n2C)c(Cl)c1F [Compound I-24]
10 to 1000 nM | COc1cc2c(cc(C(=O)N[C@H](CO)c3ccc(CC(=O)O)cc3F)n2C)c(Cl)c1C [Compound I-26]
10 to 1000 nM | Cn1c(C(=O)N[C@H](CO)c2ccc(C(=O)O)cc2Cl)cc2c(Cl)c(Cl)ccc21 [Compound I-27, 3-chloro-4-[(1S)-1-[(4,5-dichloro-1-methyl-1H-indol-2-yl)formamido]-2-hydroxyethyl]benzoic acid]
10 to 1000 nM | COc1cc2c(cc(C(=O)N[C@H](CO)c3ccc(CC(=O)O)cc3F)n2C)c(Cl)c1Cl [Compound I-28, 2-{4-[(1S)-1-[(4,5-dichloro-6-methoxy-1-methyl-1H-indol-2-yl)formamido]-2-hydroxyethyl]-3-fluorophenyl}acetic acid]
10 to 1000 nM | Cn1c(C(=O)N[C@H](CO)c2ccc(CC(=O)O)cc2)cc2c(Cl)c(Cl)ccc21 [Compound I-29, 2-{4-[(1S)-1-[(4,5-dichloro-1-methyl-1H-indol-2-yl)formamido]-2-hydroxyethyl]phenyl}acetic acid]
10 to 1000 nM | CC(NC(=O)c1cc2c(Cl)c(Cl)ccc2n1C)c1ccc(C(=O)O)cc1F (stereo not drawn) [Compound I-30]
10 to 1000 nM | CC(NC(=O)c1cc2c(Cl)c(Cl)ccc2n1C)c1ccc(CC(=O)O)cc1F (stereo not drawn) [Compound I-31]
10 to 1000 nM | Cn1c(C(=O)N[C@H](CO)c2ccc(CC(=O)O)cc2F)cc2c(Cl)c(Cl)ccc21 [Compound I-32, 2-{4-[(1S)-1-[(4,5-dichloro-1-methyl-1H-indol-2-yl)formamido]-2-hydroxyethyl]-3-fluorophenyl}acetic acid]
10 to 1000 nM | CC(NC(=O)c1cc2c(Cl)c(Cl)ccc2n1C)c1ccc(C(=O)O)cc1Cl (stereo not drawn) [Compound I-33]
1000 to 5000 nM | Cn1c(C(=O)NC(C)(C)c2ccc(C(=O)O)cc2)cc2c(Cl)c(Cl)ccc21 [Compound I-35]
1000 to 5000 nM | Cn1c(C(=O)NC(CC2CC2)c2ccc(C(=O)O)cc2)cc2c(Cl)c(Cl)ccc21 (stereo not drawn) [Compound I-36]
1000 to 5000 nM | Cn1c(C(=O)NCc2ccc(C(=O)O)cc2)cc2c(Cl)c(Cl)ccc21 [Compound I-37]
10 to 1000 nM | Cn1c(C(=O)N[C@H](CO)c2ccc(C(=O)O)cc2)cc2c(Cl)c(Cl)c(OCC(=O)NCCO)cc21 [Compound I-40, 4-[(1S)-1-[[4,5-Dichloro-6-[2-(2-hydroxyethylamino)-2-oxo-ethoxy]-1-methyl-indole-2-carbonyl]amino]-2-hydroxy-ethyl]benzoic Acid]
1000 to 5000 nM | Cn1c(C(=O)NC(c2ccc(C(=O)O)cc2)C2CC2)cc2c(Cl)c(Cl)ccc21 (stereo not drawn) [Compound I-42]

same assay, conditions: read-out: FL Diaphorase 500 μM NAD (PHGDH activity inhibition, IC50), 5 nM PHGDH, 30° C., 60 minutes

IC50 | Structure (SMILES)
10 to 1000 nM | CC(C)C(C(=O)O)c1ccc([C@@H](CO)NC(=O)c2cc3c(Cl)c(Cl)ccc3n2C)cc1 (single isomer, unassigned) [Compound I-55, (2S or 2R)-2-[4-[(1S)-1-[(4,5-dichloro-1-methyl-indole-2-carbonyl)amino]-2-hydroxy-ethyl]phenyl]-3-methyl-butanoic acid]
